Source: ChEMBL document CHEMBL1150566, “Pitipeptolides A and B, new cyclodepsipeptides from the marine cyanobacterium Lyngbya majuscula” (J Nat Prod, 2001)
Converted amounts (≈) assume the structure as drawn. The source made the active and inactive calls. The calls are words filed in the database; no cut-off is given here. Numbered stars: 1 amine (or outer) side, 2 acyl side, 3 side chain; on linkers, the order of the positions; unused ones are H or OH. Bridge positions count the residues as written; N and C are the ends. Square brackets hold non-standard residues; d marks the D form. Peptide text beside a SMILES is read from it. X1 = C=CCCC[C@H](O[*:2])C(C)(C)C(=O)[*:1]; X2 = C#CCCC[C@H](O[*:2])C(C)(C)C(=O)[*:1]; Hmpa(2S,3S) = CC[C@H](C)[C@H](O)C(=O)O; NMeF = CN[C@@H](Cc1ccccc1)C(=O)O

Experiments:
[1] = target: Plasminogen (Homo sapiens) (UniProt P00747); test: Inhibition of plasmin
[2] = test system: Mycobacterium tuberculosis; test: Antimycobacterial activity against Mycobacterium tuberculosis ATCC 35818 at 25 ug/disk by disk diffusion susceptibility assay; assay type: functional; details: read-out: DIZ
[3] = test system: Mycobacterium tuberculosis; test: Antimycobacterial activity against Mycobacterium tuberculosis ATCC 25177 at 100 ug/disk by disk diffusion susceptibility assay; assay type: functional; details: read-out: DIZ
[4] = Stimulation of elastase activity at 50 ug/ml relative to control
[5] = test system: Mycobacterium tuberculosis; test: Antimycobacterial activity against Mycobacterium tuberculosis ATCC 35818 at 100 ug/disk by disk diffusion susceptibility assay; assay type: functional; details: read-out: DIZ
[6] = Inhibition of trypsin
[7] = test system: Mycobacterium tuberculosis; test: Antimycobacterial activity against Mycobacterium tuberculosis ATCC 25177 at 25 ug/disk by disk diffusion susceptibility assay; assay type: functional; details: read-out: DIZ
[8] = test system: LoVo; test: Cytotoxicity against human LoVo cells; assay type: functional, cell-based
[9] = Inhibition of elastase
[10] = target: T1, Papain (Carica papaya) (UniProt P00784); test: Inhibition of papaya papain
T1 sequence (whole entry): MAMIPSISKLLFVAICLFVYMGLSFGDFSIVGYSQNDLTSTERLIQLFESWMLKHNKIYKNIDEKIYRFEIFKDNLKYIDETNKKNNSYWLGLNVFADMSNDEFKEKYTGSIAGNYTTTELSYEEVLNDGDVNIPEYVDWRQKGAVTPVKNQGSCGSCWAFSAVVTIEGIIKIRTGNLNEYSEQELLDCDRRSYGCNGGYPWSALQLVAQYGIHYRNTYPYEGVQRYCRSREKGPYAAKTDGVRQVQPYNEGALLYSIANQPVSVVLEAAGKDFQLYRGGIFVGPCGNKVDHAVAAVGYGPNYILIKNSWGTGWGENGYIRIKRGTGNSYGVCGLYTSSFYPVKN

[11] = Inhibition of chymotrypsin
[12] = target: Prothrombin (Homo sapiens) (UniProt P00734); test: Inhibition of thrombin
[13] = test system: Mycobacterium tuberculosis; test: Antimycobacterial activity against Mycobacterium tuberculosis ATCC 35818 at 5 ug/disk by disk diffusion susceptibility assay; assay type: functional; details: read-out: DIZ
[14] = test system: Mycobacterium tuberculosis; test: Antimycobacterial activity against Mycobacterium tuberculosis ATCC 35818 at 1 ug/disk by disk diffusion susceptibility assay; assay type: functional; details: read-out: DIZ
[15] = test system: Mycobacterium tuberculosis; test: Antimycobacterial activity against Mycobacterium tuberculosis ATCC 25177 at 5 ug/disk by disk diffusion susceptibility assay; assay type: functional; details: read-out: DIZ
[16] = test system: Mycobacterium tuberculosis; test: Antimycobacterial activity against Mycobacterium tuberculosis ATCC 25177 at 1 ug/disk by disk diffusion susceptibility assay; assay type: functional; details: read-out: DIZ

Plasminogen (Homo sapiens), sequence (P00747 97-580 limits assumed): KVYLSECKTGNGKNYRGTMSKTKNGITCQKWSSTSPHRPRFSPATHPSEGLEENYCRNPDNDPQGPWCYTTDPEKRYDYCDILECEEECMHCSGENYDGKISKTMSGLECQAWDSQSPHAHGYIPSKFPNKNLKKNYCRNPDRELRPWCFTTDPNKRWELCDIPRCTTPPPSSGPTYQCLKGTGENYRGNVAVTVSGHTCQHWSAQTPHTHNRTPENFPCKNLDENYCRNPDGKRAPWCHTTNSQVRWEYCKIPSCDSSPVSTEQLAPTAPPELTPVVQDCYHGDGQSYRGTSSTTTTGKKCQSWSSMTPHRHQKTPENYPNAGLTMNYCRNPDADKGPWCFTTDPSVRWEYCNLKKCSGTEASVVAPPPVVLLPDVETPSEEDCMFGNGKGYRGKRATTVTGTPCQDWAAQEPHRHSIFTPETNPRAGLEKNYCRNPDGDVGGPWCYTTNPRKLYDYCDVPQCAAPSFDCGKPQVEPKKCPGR
Plasminogen (Homo sapiens), sequence (P00747 581-810 limits assumed): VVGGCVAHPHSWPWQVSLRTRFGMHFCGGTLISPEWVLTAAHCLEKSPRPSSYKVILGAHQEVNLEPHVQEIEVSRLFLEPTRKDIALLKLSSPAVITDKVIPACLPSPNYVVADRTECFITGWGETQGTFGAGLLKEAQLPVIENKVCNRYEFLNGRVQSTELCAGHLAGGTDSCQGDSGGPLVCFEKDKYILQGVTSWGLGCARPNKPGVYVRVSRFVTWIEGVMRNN

Row | Structure (SMILES) | Activity [1] | zone of inhibition at 25 µg/disc [2] [mm] | zone of inhibition at 100 µg/disc [3] [mm] | fold change (FC) [4] | zone of inhibition at 100 µg/disc [5] [mm] | Activity [6] | zone of inhibition at 25 µg/disc [7] [mm] | IC50 [8] [µg/mL] | Activity [9] | Activity [10] | Activity [11] | Activity [12] | zone of inhibition at 5 µg/disc [13] [mm] | zone of inhibition at 1 µg/disc [14] [mm] | zone of inhibition at 5 µg/disc [15] [mm] | zone of inhibition at 1 µg/disc [16] [mm]
1 | C#CCCC[C@@H]1OC(=O)CNC(=O)[C@H]([C@@H](C)CC)NC(=O)[C@@H]2CCCN2C(=O)[C@H]([C@@H](C)CC)OC(=O)[C@H](Cc2ccccc2)N(C)C(=O)[C@H](C(C)C)NC(=O)C1(C)C [PITIPEPTOLIDE A] (V[NMeF][Hmpa(2S,3S)]PIG; linker N-C via X2) | inactive | 9 | 25 | 2.76 | 15 | inactive | 10 | 2.25 (≈ 2.78 µM) | inactive | inactive | inactive | inactive |  |  |  | 
2 | C=CCCC[C@@H]1OC(=O)CNC(=O)[C@H]([C@@H](C)CC)NC(=O)[C@@H]2CCCN2C(=O)[C@H]([C@@H](C)CC)OC(=O)[C@H](Cc2ccccc2)N(C)C(=O)[C@H](C(C)C)NC(=O)C1(C)C [PITIPEPTOLIDE B] (V[NMeF][Hmpa(2S,3S)]PIG; linker N-C via X1) | inactive | 10 | 30 | 2.55 | 15 | inactive | 15 | 1.95 (≈ 2.41 µM) | inactive | inactive | inactive | inactive |  |  |  | 
3 | CN[C@@H]1[C@H](O[C@H]2[C@H](O[C@H]3[C@H](O)[C@@H](O)[C@H](N=C(N)N)[C@@H](O)[C@@H]3N=C(N)N)O[C@@H](C)[C@]2(O)C=O)O[C@@H](CO)[C@H](O)[C@H]1O [STREPTOMYCIN] |  | 55 |  |  |  |  | 50 |  |  |  |  |  | 33 | 10 | 15 | 0
